Measurements reported in ChEMBL document CHEMBL2407004, “3-Acyl-5-hydroxybenzofuran derivatives as potential anti-estrogen breast cancer agents: a combined experimental and theoretical investigation” (Bioorg Med Chem Lett, 2013).

Each compound was assayed on MCF7 (assay: Antiproliferative activity against human MCF7 cells after 48 hrs by MTT assay). Conditions: MCF7, 48 h.
Format: functional, cell-based

SMILES	IC50 [µM]
COc1ccc(/C=C/C(=O)c2coc3cc(F)c(O)cc23)cc1	814
COc1cc2occ(C(=O)/C=C/c3ccc4c(c3)OCO4)c2cc1O	2110
CC/C(=C(\c1ccccc1)c1ccc(OCCN(C)C)cc1)c1ccccc1 [TAMOXIFEN]	12.3
O=C(/C=C/c1cccc(Cl)c1)c1coc2cc(F)c(O)cc12	644

The remaining lines, values ahead:

IC50 [µM]	SMILES
1660	COc1cc2occ(C(=O)c3ccc(-c4ccccc4)cc3)c2cc1O
43.1	COc1cc2occ(C(=O)c3cccc(NC(C)=O)c3)c2cc1O
167	COc1cc2occ(C(=O)/C=C/c3ccccc3)c2cc1O
464	COc1cc2occ(C(=O)/C=C/c3cccc(Cl)c3)c2cc1O
